Results taken from patent publication US7851508B2, “Natural product derivatives with antimalarial activity” (Radix Pharmaceuticals, Inc., priority 2008, dated 2010).
Values after ≈ are worked out from the molar mass of the structure shown. Where two headings read alike, the source gives them in different places.

Legend:
[1] = system: Plasmodium berghei KBG-173 in mice; assay: Prophylactic test in mice, oral; assay type: in vivo; conditions: for Mice infected and treated/Mice surviving day 60: oral; for protection from malaria (oral prophylactic activity): single dose of 0.5 mg/kg within 2 days pre-infection through 2 days post-infection
Protocol: Compounds were tested for oral prophylactic activity.
Drugs were mixed in 0.5% hydroxycellulose 0.1% Tween 80 and administered orally b.i.d. either on day 5, 4, 3, 2, or 1 prior to the infection or 1 or 2 days postinfection. CD-I male or female mice, 5 weeks of age, were infected with 5×10^4 parasitized erythrocytes of Plasmodium berghei KBG-173 mm strain. Blood films were taken on day +6 and weekly thereafter until day+30. […]

[2] = system: P. falciparum malaria parasite clone D6 (chloroquine sensitive); assay: In vitro anti-malarial activity, [3H]hypoxanthine uptake, D6 clone; assay type: cell-based, Plasmodium falciparum
Excerpt: (§1) For in vitro toxicological studies, the following cell line was chosen: human adult liver epithelial cells (THLE-3). THLE-3 cells express phenotypic characteristics of normal adult liver epithelial cells and constitute a valuable model for pharmacotoxicological studies.
(§2) Two P. falciparum malaria parasite clones, W2 and D6, from Malaria Research and Reference Reagent Resource Center (MR4), were utilized in susceptibility testing. […] Test compounds were initially dissolved in DMSO and diluted 400 fold in RPMI 1640 culture medium supplemented with 25 mM Hepes, 32 mM NaHCO3 and 10% Albumax I (Gibco, N.Y.). These solutions were subsequently serially diluted two-fold with a Beckman Biomek® 1000 Robot (Fullerton, Calif.) over 11 different concentrations. The parasites were exposed to serial dilutions of each compound for 48 hrs and incubated at 37° C. with 5% O2, 5% CO2 and 90% N2 prior to the addition of [^3H]hypoxanthine. After a further incubation of 18 hrs, parasite DNA was harvested from each microtiter well using Packard Filtermate™ 196 Harvester (Meriden, Conn.) onto glass filters. Uptake of [^3H]hypoxanthine was measured with a Packard TopCount Liquid Scintillation Counter (Packard Instrument Co.).

P. berghei in mice [3] = assay: Suppressive blood schizontocidal test in mice, subcutaneous single dose; assay type: in vivo, Plasmodium berghei; conditions: for Mice surviving 60 days/Mice infected and treated: 72 h after infection
Protocol: Mice were treated with a single dose of the compound administered subcutaneously 72 h after infection. Number of cures is the number of mice surviving, out of five, 60 days postinfection.

P. berghei in mice [4] = assay type: in vivo; conditions: for toxicity in mice: highest dose tested; for toxicity in mice / blood schizonticidal activity, in words: oral
Protocol: Drugs were mixed in 0.5% hydroxycellulose 0.1% Tween 80 and administered orally b.i.d. on days 3, 4 and 5 postinfection. CD-1 male or female mice, 5 weeks of age, were infected with 5×10^4 parasitized erythrocytes of Plasmodium berghei KBG-173 mm strain. Blood films were taken on day +6 and weekly thereafter until day +60. Parasitemias were calculated and SD90 value (dose suppressing 90% of the parasites in treated groups compared with the infected non-treated controls) on day +6 postinfection. Mortality data was tabulated for 60 days at which time all mice surviving that were blood film negative were considered cured.
[…] The activity of these compounds were compared with the untreated control: In untreated controls, death occurs within 8-9 days. Compounds which are effective against Plasmodium berghei infection increase the mean survival time of the infected animals when compared with the untreated controls. Mice that survive after thirty days and are free of parasites in blood are considered cured.
Efficacy of the drug is determined by the number of cures at the end of a 30 day period and the increase in mean survival time over the control (ΔMST). The effect of the test drugs also could be determined by the reduction of the parasitemia (percentage of the red blood cells detected with the parasites) over the untreated control on day 6, one day after the treatment is completed. Both these methods yield virtually identical results. If the dose of test compounds are inadequate, after initial clearance, residual parasites will multiply and relapses will occur within thirty days.

[5] = system: P. falciparum malaria parasite clone W2 (chloroquine resistant); assay: In vitro anti-malarial activity, [3H]hypoxanthine uptake, W2 clone; assay type: cell-based, Plasmodium falciparum
Excerpt: as §1, §2

[6] = system: human adult liver epithelial cells (THLE-3); assay: In vitro toxicity evaluation, Sulforhodamine B; assay type: cell-based; conditions: for IC50: Homo sapiens, read-out: IC50 THLE-3; for Selectivity, IC50 (THLE-3)/IC50 (D6): ratio THLE-3 vs D6
Protocol: as §1
Human adult liver epithelial cells (THLE-3) was maintained in tissue culture flasks in Waymouth's medium (Gibco, N.Y.) supplemented with 10% fetal bovine serum. Toxicity tests were performed in 96-well tissue culture plates using the protein-binding dye Sulforhodamine B. Test compounds were serially diluted and added to empty wells of the 96-well plate. THLE-3 cells in their culture medium were immediately seeded into the wells. Solvent blanks (no compound) were run in each test. After 72 hours under culture conditions cells were fixed to the plate by layering 50% TCA (4° C.) over the growth media in each well to produce a final TCA concentration of 10%. After incubating for one hour at 4° C., cultures were washed five times with tap water and left air-dried. Wells were stained for 30 min. with 0.4% (w/v) SRB in 1% acetic acid and washed four times with 1% acetic acid. Cultures were left air-dried and bound dye was solubilized with 10 mM Tris base (pH 10.5) for 15 min. on a gyratory shaker at room temperature. A Spectra MAX Plus Microtiter Plate Reader (Molecular Devices, Menlo Park, Calif.) was used to measure the optical density at wavelengths of 490-530 nm.

[7] = day of treatment 1, dose 0.5 mg/kg
[8] = day of treatment 1, dose 2 mg/kg
[9] = day of treatment 1, dose 8 mg/kg
[10] = day of treatment 1, dose 32 mg/kg
[11] = day of treatment 2, dose 0.5 mg/kg
[12] = day of treatment 2, dose 2 mg/kg
[13] = day of treatment 2, dose 8 mg/kg
[14] = day of treatment 2, dose 32 mg/kg
[15] = day of treatment −1, dose 0.5 mg/kg
[16] = day of treatment −1, dose 2 mg/kg
[17] = day of treatment −1, dose 8 mg/kg
[18] = day of treatment −1, dose 32 mg/kg
[19] = day of treatment −2, dose 0.5 mg/kg
[20] = day of treatment −2, dose 2 mg/kg
[21] = day of treatment −2, dose 8 mg/kg
[22] = day of treatment −2, dose 32 mg/kg
[23] = Plasmodium falciparum, D6; read-out: IC50 D6 Strain
[24] = subcutaneous single dose 1 mg/kg
[25] = subcutaneous single dose 2 mg/kg
[26] = subcutaneous single dose 4 mg/kg
[27] = subcutaneous single dose 8 mg/kg
[28] = subcutaneous single dose 16 mg/kg
[29] = subcutaneous single dose 32 mg/kg
[30] = subcutaneous single dose 64 mg/kg
[31] = subcutaneous single dose 128 mg/kg
[32] = oral dose 0.25 mg/kg/day (total dose 0.75 mg/kg)
[33] = oral dose 1.0 mg/kg/day (total dose 3.0 mg/kg)
[34] = oral dose 4.0 mg/kg/day (total dose 12 mg/kg)
[35] = oral dose 16 mg/kg/day (total dose 48 mg/kg)
[36] = oral dose 64 mg/kg/day (total dose 192 mg/kg)
[37] = Plasmodium falciparum, W2; read-out: IC50 W2 Strain
[38] = THLE3, THLE-3 cells, 72 hours, toxicity

C=C[C@@H]1[C@@H](OC)[C@H](OC)[C@@]23CC24c2cc5cc(OC)ccc5nc2C(=O)N[C@H]4CN13 (stereo partly shown) [Formula I]
Mice infected and treated/Mice surviving day 60 [1, 7]: 5/5
Mice infected and treated/Mice surviving day 60 [1, 8]: 5/5
Mice infected and treated/Mice surviving day 60 [1, 9]: 5/5
Mice infected and treated/Mice surviving day 60 [1, 10]: 5/5
Mice infected and treated/Mice surviving day 60 [1, 11]: 5/5
Mice infected and treated/Mice surviving day 60 [1, 12]: 5/5
Mice infected and treated/Mice surviving day 60 [1, 13]: 5/5
Mice infected and treated/Mice surviving day 60 [1, 14]: 5/5
Mice infected and treated/Mice surviving day 60 [1, 15]: 5/5
Mice infected and treated/Mice surviving day 60 [1, 16]: 5/5
Mice infected and treated/Mice surviving day 60 [1, 17]: 5/5
Mice infected and treated/Mice surviving day 60 [1, 18]: 5/5
Mice infected and treated/Mice surviving day 60 [1, 19]: 5/5
Mice infected and treated/Mice surviving day 60 [1, 20]: 5/5
Mice infected and treated/Mice surviving day 60 [1, 21]: 5/5
Mice infected and treated/Mice surviving day 60 [1, 22]: 5/5
protection from malaria (oral prophylactic activity) [1]: completely protected
IC50 [2, 23]: 0.47 ng/mL
inhibitory activity against chloroquine sensitive malaria strain (D-6), in words ([2]; in vitro): equally potent inhibitory activity
activity by the subcutaneous route of administration, in words (P. berghei in mice [3]): excellent activity
Mice surviving 60 days/Mice infected and treated (P. berghei in mice [3]; [24]): 4/5
Mice surviving 60 days/Mice infected and treated (P. berghei in mice [3]; [25]): 5/5
Mice surviving 60 days/Mice infected and treated (P. berghei in mice [3]; [26]): 5/5
Mice surviving 60 days/Mice infected and treated (P. berghei in mice [3]; [27]): 5/5
Mice surviving 60 days/Mice infected and treated (P. berghei in mice [3]; [28]): 5/5
Mice surviving 60 days/Mice infected and treated (P. berghei in mice [3]; [29]): 5/5
Mice surviving 60 days/Mice infected and treated (P. berghei in mice [3]; [30]): 5/5
Mice surviving 60 days/Mice infected and treated (P. berghei in mice [3]; [31]): 5/5
toxicity in mice (P. berghei in mice [4]): no mice showed toxicity
blood schizonticidal activity, in words (P. berghei in mice [4]): very active
Mice surviving 60 days/Mice infected and treated (P. berghei in mice [4]; [32]): 7/7
Mice surviving 60 days/Mice infected and treated (P. berghei in mice [4]; [33]): 7/7
Mice surviving 60 days/Mice infected and treated (P. berghei in mice [4]; [34]): 7/7
Mice surviving 60 days/Mice infected and treated (P. berghei in mice [4]; [35]): 7/7
Mice surviving 60 days/Mice infected and treated (P. berghei in mice [4]; [36]): 7/7
IC50 [5, 37]: 0.43 ng/mL
inhibitory activity against chloroquine resistant malaria strain (W-2), in words ([5]; in vitro): equally potent inhibitory activity
IC50 [6, 38]: 19400 ng/mL
Selectivity, IC50 (THLE-3)/IC50 (D6) [6]: 4.1 × 10^4

CCN(CC)CCCC(C)Nc1ccnc2cc(Cl)ccc12 (stereo not shown) [Chloroquine, reference compound]
IC50 ([2]; Plasmodium falciparum, D6, read-out: IC50 D6 Strain): 6.3 ng/mL (≈ 0.0197 µM)
Mice surviving 60 days/Mice infected and treated (P. berghei in mice [4]; [32]): 0/7
Mice surviving 60 days/Mice infected and treated (P. berghei in mice [4]; [33]): 0/7
Mice surviving 60 days/Mice infected and treated (P. berghei in mice [4]; [34]): 2/7
Mice surviving 60 days/Mice infected and treated (P. berghei in mice [4]; [35]): 4/7
Mice surviving 60 days/Mice infected and treated (P. berghei in mice [4]; [36]): 0/7
IC50 ([5]; Plasmodium falciparum, W2, read-out: IC50 W2 Strain): 108 ng/mL (≈ 0.338 µM)
IC50 ([6]; THLE3, 72 h): 2920 ng/mL (≈ 9.13 µM)
Selectivity, IC50 (THLE-3)/IC50 (D6) [6]: 463

C=C[C@@H]1[C@H]2OCOC2[C@@]23CC24c2nc5ccc(OC)cc5cc2C(=O)N[C@H]4CN13 (stereo partly shown) [Formula II]
Mice infected and treated/Mice surviving day 60 [1, 7]: 5/5
Mice infected and treated/Mice surviving day 60 [1, 8]: 5/5
Mice infected and treated/Mice surviving day 60 [1, 9]: 5/5
Mice infected and treated/Mice surviving day 60 [1, 10]: 5/5
Mice infected and treated/Mice surviving day 60 [1, 11]: 5/5
Mice infected and treated/Mice surviving day 60 [1, 12]: 5/5
Mice infected and treated/Mice surviving day 60 [1, 13]: 5/5
Mice infected and treated/Mice surviving day 60 [1, 14]: 5/5
Mice infected and treated/Mice surviving day 60 [1, 15]: 5/5
Mice infected and treated/Mice surviving day 60 [1, 16]: 5/5
Mice infected and treated/Mice surviving day 60 [1, 17]: 5/5
Mice infected and treated/Mice surviving day 60 [1, 18]: 5/5
Mice infected and treated/Mice surviving day 60 [1, 19]: 5/5
Mice infected and treated/Mice surviving day 60 [1, 20]: 5/5
Mice infected and treated/Mice surviving day 60 [1, 21]: 5/5
Mice infected and treated/Mice surviving day 60 [1, 22]: 5/5
protection from malaria (oral prophylactic activity) [1]: completely protected
IC50 [2, 23]: 0.29 ng/mL
inhibitory activity against chloroquine sensitive malaria strain (D-6), in words ([2]; in vitro): equally potent inhibitory activity
activity by the subcutaneous route of administration, in words (P. berghei in mice [3]): excellent activity
Mice surviving 60 days/Mice infected and treated (P. berghei in mice [3]; [24]): 4/5
Mice surviving 60 days/Mice infected and treated (P. berghei in mice [3]; [25]): 5/5
Mice surviving 60 days/Mice infected and treated (P. berghei in mice [3]; [26]): 5/5
Mice surviving 60 days/Mice infected and treated (P. berghei in mice [3]; [27]): 5/5
Mice surviving 60 days/Mice infected and treated (P. berghei in mice [3]; [28]): 5/5
Mice surviving 60 days/Mice infected and treated (P. berghei in mice [3]; [29]): 5/5
Mice surviving 60 days/Mice infected and treated (P. berghei in mice [3]; [30]): 5/5
Mice surviving 60 days/Mice infected and treated (P. berghei in mice [3]; [31]): 5/5
toxicity in mice (P. berghei in mice [4]): no mice showed toxicity
blood schizonticidal activity, in words (P. berghei in mice [4]): very active
Mice surviving 60 days/Mice infected and treated (P. berghei in mice [4]; [32]): 7/7
Mice surviving 60 days/Mice infected and treated (P. berghei in mice [4]; [33]): 7/7
Mice surviving 60 days/Mice infected and treated (P. berghei in mice [4]; [34]): 7/7
Mice surviving 60 days/Mice infected and treated (P. berghei in mice [4]; [35]): 7/7
Mice surviving 60 days/Mice infected and treated (P. berghei in mice [4]; [36]): 7/7
IC50 [5, 37]: 0.33 ng/mL
inhibitory activity against chloroquine resistant malaria strain (W-2), in words ([5]; in vitro): equally potent inhibitory activity
IC50 [6, 38]: 18900 ng/mL
Selectivity, IC50 (THLE-3)/IC50 (D6) [6]: 7.0 × 10^4

OC(c1cc(C(F)(F)F)nc2c(C(F)(F)F)cccc12)C1CCCCN1 (stereo not shown) [Mefloquine, reference compound]
IC50 [2, 23]: 3.4 ng/mL (≈ 0.00899 µM)
IC50 [5, 37]: 5.6 ng/mL (≈ 0.0148 µM)
IC50 [6, 38]: 2700 ng/mL (≈ 7.14 µM)
Selectivity, IC50 (THLE-3)/IC50 (D6) [6]: 794
